According to paper PMC5218480 (PLoS ONE, 2017):

Tested on: MV-4-11 cells
Test: Gene expression microarray analysis (Affymetrix PrimeView) and GSEA
Format: cell-based, human
Parameters: RFU PODN (11730768_x_at) / Fold change /veh PODN (11730768_x_at) / RFU LINC00158 (11744669_a_at) / Fold change /veh LINC00158 (11744669_a_at) / RFU DUSP10 (11751237_a_at) / Fold change /veh DUSP10 (11751237_a_at) / RFU ID3 (11757404_x_at) / Fold change /veh ID3 (11757404_x_at) / RFU PLEKHG5 (11737974_s_at) / Fold change /veh PLEKHG5 (11737974_s_at) / RFU LRRC4B (11730491_at) / Fold change /veh LRRC4B (11730491_at) / RFU GIMAP4 (11747438_a_at) / Fold change /veh GIMAP4 (11747438_a_at) / RFU KRT8 (11758183_x_at) / Fold change /veh KRT8 (11758183_x_at) / RFU CNN1 (11734310_a_at) / Fold change /veh CNN1 (11734310_a_at) / RFU VPS37D (11726825_at) / Fold change /veh VPS37D (11726825_at) / RFU C10orf10 (11716522_x_at) / Fold change /veh C10orf10 (11716522_x_at) / RFU KIR2DL2 /// KIR2DL4 /// KIR2DL5A /// KIR2DL5B /// KIR2DS1 /// KIR2DS2 /// KIR2DS3 /// KIR2DS4 /// KIR3DL3 /// KIR3DL3 /// KIR3DS1 (11738374_at) / Fold change /veh KIR2DL2 /// KIR2DL4 /// KIR2DL5A /// KIR2DL5B /// KIR2DS1 /// KIR2DS2 /// KIR2DS3 /// KIR2DS4 /// KIR3DL3 /// KIR3DL3 /// KIR3DS1 (11738374_at) / RFU C1QL1 (11718748_at) / Fold change /veh C1QL1 (11718748_at) / RFU TMPRSS4 (11747572_a_at) / Fold change /veh TMPRSS4 (11747572_a_at) / RFU HAMP (11756126_x_at) / Fold change /veh HAMP (11756126_x_at) / RFU RNFT2 (11725882_a_at) / Fold change /veh RNFT2 (11725882_a_at) / RFU NR4A2 (11747474_a_at) / Fold change /veh NR4A2 (11747474_a_at) / RFU ABCC12 (11746883_a_at) / Fold change /veh ABCC12 (11746883_a_at) / RFU TMEM136 (11760407_x_at) / Fold change /veh TMEM136 (11760407_x_at) / RFU CLDN22 /// WWC2 (11732394_at) / Fold change /veh CLDN22 /// WWC2 (11732394_at) / RFU HLA-DPB1 (11760878_x_at) / Fold change /veh HLA-DPB1 (11760878_x_at) / RFU SPINT1 (11716480_a_at) / Fold change /veh SPINT1 (11716480_a_at) / RFU GAP43 (11754022_s_at) / Fold change /veh GAP43 (11754022_s_at) / RFU A4GNT (11735810_at) / Fold change /veh A4GNT (11735810_at) / RFU PRB3 (11715151_x_at) / Fold change /veh PRB3 (11715151_x_at) / RFU TUBB4B (11761932_at) / Fold change /veh TUBB4B (11761932_at) / RFU CAPN14 (11732068_a_at) / Fold change /veh CAPN14 (11732068_a_at) / RFU TMCC2 (11721928_a_at) / Fold change /veh TMCC2 (11721928_a_at) / RFU IRGQ (11745062_a_at) / Fold change /veh IRGQ (11745062_a_at) / RFU FAM174B (11720279_a_at) / Fold change /veh FAM174B (11720279_a_at) / RFU TMPRSS4 (11748680_a_at) / Fold change /veh TMPRSS4 (11748680_a_at) / RFU FAM212B (11763350_a_at) / Fold change /veh FAM212B (11763350_a_at) / RFU PLEKHG5 (11743358_a_at) / Fold change /veh PLEKHG5 (11743358_a_at) / RFU ZSCAN30 (11745921_a_at) / Fold change /veh ZSCAN30 (11745921_a_at) / RFU CMKLR1 (11741424_a_at) / Fold change /veh CMKLR1 (11741424_a_at) / RFU LOC101060620 /// MAPK8IP1 (11723275_at) / Fold change /veh LOC101060620 /// MAPK8IP1 (11723275_at) / RFU SPTSSB (11747773_x_at) / Fold change /veh SPTSSB (11747773_x_at) / RFU PRSS12 (11739890_at) / Fold change /veh PRSS12 (11739890_at) / RFU BIN1 (11741810_x_at) / Fold change /veh BIN1 (11741810_x_at) / RFU WNT11 (11732464_a_at) / Fold change /veh WNT11 (11732464_a_at) / RFU C10orf10 (11716521_a_at) / Fold change /veh C10orf10 (11716521_a_at) / RFU C5orf56 (11738089_at) / Fold change /veh C5orf56 (11738089_at) / RFU CYB561 (11721691_x_at) / Fold change /veh CYB561 (11721691_x_at) / RFU ANKRD19P (11752326_a_at) / Fold change /veh ANKRD19P (11752326_a_at) / RFU OR2T12 /// OR2T33 /// OR2T8 (11738714_s_at) / Fold change /veh OR2T12 /// OR2T33 /// OR2T8 (11738714_s_at) / RFU VCAN (11748164_a_at) / Fold change /veh VCAN (11748164_a_at) / RFU JSRP1 (11732532_at) / Fold change /veh JSRP1 (11732532_at) / RFU KRTAP10-11 (11738290_x_at) / Fold change /veh KRTAP10-11 (11738290_x_at) / RFU MYO3A (11730013_a_at) / Fold change /veh MYO3A (11730013_a_at) / RFU EBF3 (11725865_a_at) / Fold change /veh EBF3 (11725865_a_at) / RFU CAMK2N1 (11719241_x_at) / Fold change /veh CAMK2N1 (11719241_x_at) / RFU C5orf56 (11738088_a_at) / Fold change /veh C5orf56 (11738088_a_at) / RFU OLFML3 (11715873_a_at) / Fold change /veh OLFML3 (11715873_a_at) / RFU LOC100653217 /// NTM (11731650_a_at) / Fold change /veh LOC100653217 /// NTM (11731650_a_at) / RFU MAPK11 (11762145_a_at) / Fold change /veh MAPK11 (11762145_a_at) / RFU FIZ1 (11724087_x_at) / Fold change /veh FIZ1 (11724087_x_at) / RFU OASL (11726364_x_at) / Fold change /veh OASL (11726364_x_at) / RFU SOX15 (11748057_x_at) / Fold change /veh SOX15 (11748057_x_at) / RFU CD79A (11719716_a_at) / Fold change /veh CD79A (11719716_a_at) / RFU HIST1H1D (11736915_at) / Fold change /veh HIST1H1D (11736915_at) / RFU CASKIN2 (11723855_a_at) / Fold change /veh CASKIN2 (11723855_a_at) / RFU LOC730098 (11760151_x_at) / Fold change /veh LOC730098 (11760151_x_at) / RFU OR4N2 (11742367_at) / Fold change /veh OR4N2 (11742367_at) / RFU PRRT2 (11749266_a_at) / Fold change /veh PRRT2 (11749266_a_at) / RFU SNX32 (11753110_a_at) / Fold change /veh SNX32 (11753110_a_at) / RFU CDHR5 (11726645_a_at) / Fold change /veh CDHR5 (11726645_a_at) / RFU RCAN1 (11760418_a_at) / Fold change /veh RCAN1 (11760418_a_at) / RFU FAM167A (11723789_a_at) / Fold change /veh FAM167A (11723789_a_at) / RFU FAM26E (11764081_at) / Fold change /veh FAM26E (11764081_at) / RFU ISYNA1 (11749810_s_at) / Fold change /veh ISYNA1 (11749810_s_at) / RFU ACY1 (11761880_at) / Fold change /veh ACY1 (11761880_at) / RFU 11764098_at / Fold change /veh 11764098_at / RFU SAMD14 (11745864_x_at) / Fold change /veh SAMD14 (11745864_x_at) / RFU NPB (11741838_a_at) / Fold change /veh NPB (11741838_a_at) / RFU TMPRSS6 (11731388_a_at) / Fold change /veh TMPRSS6 (11731388_a_at) / RFU KRTAP10-2 (11738614_at) / Fold change /veh KRTAP10-2 (11738614_at) / RFU ARHGAP8 /// PRR5-ARHGAP8 (11727945_x_at) / Fold change /veh ARHGAP8 /// PRR5-ARHGAP8 (11727945_x_at) / RFU KRTAP5-7 /// NADSYN1 (11734609_at) / Fold change /veh KRTAP5-7 /// NADSYN1 (11734609_at) / RFU RASL12 (11751679_a_at) / Fold change /veh RASL12 (11751679_a_at) / RFU CDKN2B (11736163_a_at) / Fold change /veh CDKN2B (11736163_a_at) / RFU PRF1 (11729649_at) / Fold change /veh PRF1 (11729649_at) / RFU, ZNF638 /// ZNF638-IT1 / Fold change vs veh, ZNF638 /// ZNF638-IT1 / RFU, PANK3 / Fold change vs veh, PANK3 / RFU, SH3YL1 / Fold change vs veh, SH3YL1 / RFU, ZEB2 / Fold change vs veh, ZEB2 / RFU, NRIP1 / Fold change vs veh, NRIP1 / RFU, PTTG1IP / Fold change vs veh, PTTG1IP / RFU, CAPN2 / Fold change vs veh, CAPN2 / RFU, MED14 / Fold change vs veh, MED14 / RFU, SNORA58 / Fold change vs veh, SNORA58 / RFU, C1orf63 / Fold change vs veh, C1orf63 / RFU, LRRFIP1 / Fold change vs veh, LRRFIP1 / RFU, NDUFAF7 / Fold change vs veh, NDUFAF7 / RFU, SLC12A2 / Fold change vs veh, SLC12A2 / RFU, IBTK / Fold change vs veh, IBTK / RFU, ESF1 / Fold change vs veh, ESF1 / Fold change vs veh, TMEM50B / RFU, TAOK1 / Fold change vs veh, TAOK1 / RFU, ACBD3 / Fold change vs veh, ACBD3 / RFU, TMA16 / Fold change vs veh, TMA16 / RFU, RWDD3 / Fold change vs veh, RWDD3 / RFU, BCAT1 / Fold change vs veh, BCAT1 / RFU, EDEM3 / Fold change vs veh, EDEM3 / RFU, TMEM33 / Fold change vs veh, TMEM33 / RFU, WDR75 / Fold change vs veh, WDR75 / RFU, AHCTF1 / Fold change vs veh, AHCTF1 / RFU, TFRC / Fold change vs veh, TFRC / RFU, ZDHHC17 / Fold change vs veh, ZDHHC17 / RFU, NOM1 / Fold change vs veh, NOM1 / RFU, ARL8B / Fold change vs veh, ARL8B / RFU, ZBTB11 / Fold change vs veh, ZBTB11 / RFU, TAMM41 / Fold change vs veh, TAMM41 / RFU, KIAA1704 /// LOC100996395 / Fold change vs veh, KIAA1704 /// LOC100996395 / RFU, ING1 / Fold change vs veh, ING1 / RFU, TRMT61B / Fold change vs veh, TRMT61B / RFU, FUBP3 / Fold change vs veh, FUBP3 / RFU, TP53 / Fold change vs veh, TP53 / RFU, TNKS2 / Fold change vs veh, TNKS2 / RFU, ZFP14 / Fold change vs veh, ZFP14 / RFU, ACTR2 / Fold change vs veh, ACTR2 / RFU, PPP3R1 / Fold change vs veh, PPP3R1 / RFU, PIK3R1 / Fold change vs veh, PIK3R1 / RFU, HNRNPA1 / Fold change vs veh, HNRNPA1 / RFU, RNF170 / Fold change vs veh, RNF170 / RFU, ZNF28 / Fold change vs veh, ZNF28 / RFU, RNGTT / Fold change vs veh, RNGTT / RFU, OGT / Fold change vs veh, OGT / RFU, BRD1 / Fold change vs veh, BRD1 / RFU, MARS / Fold change vs veh, MARS / RFU, ZNF655 / Fold change vs veh, ZNF655 / RFU, FAHD1 / Fold change vs veh, FAHD1 / RFU, BDP1 / Fold change vs veh, BDP1 / RFU, LRRCC1 / Fold change vs veh, LRRCC1 / RFU, ARID1A / Fold change vs veh, ARID1A / RFU, ZNF146 / Fold change vs veh, ZNF146 / RFU, ZNF330 / Fold change vs veh, ZNF330 / RFU, GPN3 / Fold change vs veh, GPN3 / RFU, C9orf123 / Fold change vs veh, C9orf123 / RFU, N4BP2L2 / Fold change vs veh, N4BP2L2 / RFU, ARFIP1 / Fold change vs veh, ARFIP1 / RFU, FAM179B / Fold change vs veh, FAM179B / RFU, BCL10 / Fold change vs veh, BCL10 / RFU, UHRF1BP1L / Fold change vs veh, UHRF1BP1L / RFU, BET1 / Fold change vs veh, BET1 / RFU, CNOT2 / Fold change vs veh, CNOT2 / RFU, ZNF268 / Fold change vs veh, ZNF268 / Fold change vs veh, ZNF507 / RFU, DGCR2 / Fold change vs veh, DGCR2 / RFU, WDSUB1 / Fold change vs veh, WDSUB1 / Fold change vs veh, HSP90B1 /// MIR3652 / RFU, ADSS / Fold change vs veh, ADSS / RFU, GK / Fold change vs veh, GK / RFU, ZNF148 / Fold change vs veh, ZNF148 / RFU, TAF9 / Fold change vs veh, TAF9 / RFU, SLC1A5 / Fold change vs veh, SLC1A5 / RFU, SLMO2 / Fold change vs veh, SLMO2 / RFU, ABCC4 / Fold change vs veh, ABCC4 / RFU, LOC101060439 /// RAP1B / Fold change vs veh, LOC101060439 /// RAP1B / RFU, RFX7 / Fold change vs veh, RFX7 / RFU, GTPBP10 / Fold change vs veh, GTPBP10 / RFU, CNEP1R1 / Fold change vs veh, CNEP1R1 / RFU, BIVM-ERCC5 /// ERCC5 / Fold change vs veh, BIVM-ERCC5 /// ERCC5 / RFU, ILF3 / Fold change vs veh, ILF3 / RFU 11762660_at / Fold change /veh 11762660_at / RFU VCAN (11757783_s_at) / Fold change /veh VCAN (11757783_s_at) / RFU DDX43 (11728927_at) / Fold change /veh DDX43 (11728927_at) / RFU KRT8 (11758188_x_at) / Fold change /veh KRT8 (11758188_x_at) / RFU NKD1 (11759106_at) / Fold change /veh NKD1 (11759106_at) / RFU SRD5A1 (11742802_a_at) / Fold change /veh SRD5A1 (11742802_a_at) / RFU TPSAB1 /// TPSB2 (11721975_s_at) / Fold change /veh TPSAB1 /// TPSB2 (11721975_s_at) / RFU GSTM3 (11746129_a_at) / Fold change /veh GSTM3 (11746129_a_at) / RFU IL23R (11737362_x_at) / Fold change /veh IL23R (11737362_x_at) / RFU TMEM51 (11727254_a_at) / Fold change /veh TMEM51 (11727254_a_at) / RFU PIWIL2 (11732686_x_at) / Fold change /veh PIWIL2 (11732686_x_at) / RFU ORM1 (11744905_x_at) / Fold change /veh ORM1 (11744905_x_at) / RFU CCDC152 (11743942_at) / Fold change /veh CCDC152 (11743942_at) / RFU ECM1 (11717891_a_at) / Fold change /veh ECM1 (11717891_a_at) / RFU IL23R (11748794_a_at) / Fold change /veh IL23R (11748794_a_at) / RFU TNFAIP8L3 (11732012_x_at) / Fold change /veh TNFAIP8L3 (11732012_x_at) / RFU MBOAT4 (11741988_at) / Fold change /veh MBOAT4 (11741988_at) / RFU 11764193_at / Fold change /veh 11764193_at / RFU TMEM53 (11763286_at) / Fold change /veh TMEM53 (11763286_at) / RFU MAGEB2 (11727129_at) / Fold change /veh MAGEB2 (11727129_at) / RFU TMEM200A (11744735_a_at) / Fold change /veh TMEM200A (11744735_a_at) / RFU CCDC152 (11751479_a_at) / Fold change /veh CCDC152 (11751479_a_at) / RFU FAM211A (11726209_a_at) / Fold change /veh FAM211A (11726209_a_at) / RFU RGS16 (11746705_a_at) / Fold change /veh RGS16 (11746705_a_at) / RFU VCAN (11755009_s_at) / Fold change /veh VCAN (11755009_s_at) / RFU RHOB (11743442_s_at) / Fold change /veh RHOB (11743442_s_at) / RFU RGS16 (11720943_a_at) / Fold change /veh RGS16 (11720943_a_at) / RFU RGS16 (11720944_at) / Fold change /veh RGS16 (11720944_at) / RFU, VPS4B / Fold change vs veh, VPS4B / RFU, CREB1 / Fold change vs veh, CREB1 / RFU, DNAJC13 / Fold change vs veh, DNAJC13 / RFU, GNAQ / Fold change vs veh, GNAQ / RFU, CDK5R1 / Fold change vs veh, CDK5R1 / RFU, ZRANB3 / Fold change vs veh, ZRANB3 / RFU, CUL4A / Fold change vs veh, CUL4A / RFU, CCNY / Fold change vs veh, CCNY / RFU, UFL1 / Fold change vs veh, UFL1 / RFU, COG3 / Fold change vs veh, COG3 / RFU, DIAPH2 / Fold change vs veh, DIAPH2 / RFU, SKA2 / Fold change vs veh, SKA2 / RFU, AFF3 / Fold change vs veh, AFF3 / RFU, LMF1 / Fold change vs veh, LMF1 / RFU, IPO11 / Fold change vs veh, IPO11 / RFU, DFFB / Fold change vs veh, DFFB / RFU, FOXP1 / Fold change vs veh, FOXP1 / RFU, CARD8 / Fold change vs veh, CARD8 / RFU, STRN3 / Fold change vs veh, STRN3 / RFU, ADK / Fold change vs veh, ADK / RFU, RASSF2 / Fold change vs veh, RASSF2 / RFU, WIPF1 / Fold change vs veh, WIPF1 / RFU, LARP1B / Fold change vs veh, LARP1B / RFU, RASA1 / Fold change vs veh, RASA1 / RFU, RB1 / Fold change vs veh, RB1 / RFU, PPFIA1 / Fold change vs veh, PPFIA1 / RFU, MAT2A / Fold change vs veh, MAT2A / RFU, CCT5 / Fold change vs veh, CCT5 / RFU, WDR92 / Fold change vs veh, WDR92 / RFU, CUX1 / Fold change vs veh, CUX1 / RFU, TTC7A / Fold change vs veh, TTC7A / RFU, TMEM135 / Fold change vs veh, TMEM135 / RFU, DEPTOR / Fold change vs veh, DEPTOR / RFU, CPM / Fold change vs veh, CPM / RFU, DNAJB6 / Fold change vs veh, DNAJB6 / RFU, CACNA2D3 / Fold change vs veh, CACNA2D3 / RFU, DTX4 / Fold change vs veh, DTX4 / RFU, TFCP2 / Fold change vs veh, TFCP2 / RFU, GMCL1 /// GMCL1P1 / Fold change vs veh, GMCL1 /// GMCL1P1 / RFU, AEBP2 / Fold change vs veh, AEBP2 / RFU, SNHG1 /// SNORD22 /// SNORD25 /// SNORD26 /// SNORD27 /// SNORD28 /// SNORD29 /// SNORD31 / Fold change vs veh, SNHG1 /// SNORD22 /// SNORD25 /// SNORD26 /// SNORD27 /// SNORD28 /// SNORD29 /// SNORD31 / Fold change (Aza/veh), C12orf56 (ProbeSet 11735607_a_at) / Fold change (ACY-1035/veh), C12orf56 (ProbeSet 11735607_a_at) / Fold change (Aza/veh), FGFR1OP (ProbeSet 11751329_s_at) / Fold change (ACY-1035/veh), FGFR1OP (ProbeSet 11751329_s_at) / Fold change (Aza/veh), VPS36 (ProbeSet 11739960_a_at) / Fold change (ACY-1035/veh), VPS36 (ProbeSet 11739960_a_at) / RFU SYPL1 (11715823_x_at) / Fold change /veh SYPL1 (11715823_x_at) / RFU IGFBP7 (11715501_s_at) / Fold change /veh IGFBP7 (11715501_s_at) / RFU REEP3 (11722064_at) / Fold change /veh REEP3 (11722064_at) / RFU IGLL1 (11728026_x_at) / Fold change /veh IGLL1 (11728026_x_at): dose or concentration left out as unconfirmed
Conditions: ProbeSet 11763166_a_at; LIST B

## Nc1ncn([C@@H]2O[C@H](CO)[C@@H](O)[C@H]2O)c(=O)n1 [azacitidine]
  Fold change vs veh, MARS: 0.85
